{"source": "patent US20150328250A1", "about": "“Animal Food Composition and Method” (HILL'S PET NUTRITION, INC., priority 2012, published 2015)", "key": {"[1]": {"assay": "Amount of zinc bound to chitosan after 1 hour of dialysis", "type": "physicochemical", "method": "(§1) The chitosan-controlled release of zinc was investigated. 0.1% solutions of chitosan were prepared. Zinc acetate was added to each of these solutions to provide a zinc ion concentration of 100 ppm or 200 ppm. The pH of the solutions was adjusted to 2, 5 or 7. Each solution was left at room temperature for 72 hours while gently mixing to allow for complete chitosan dissolution. Solutions containing zinc alone acted as controls for the experiment.\n(§2) Each solution was subsequently transferred to dialysis tubing and placed in a jar containing deionized water. Stirring was carried out continuously throughout the duration of dialysis. Evaporative loss was minimized by placing a sealing wrap over the jar. A sample of the dialysate was removed at regular intervals and the zinc ion concentration was measured by inductively coupled plasma optical emission spectrometry (ICP-OES).\nThe amount of zinc bound to chitosan after 1 hour of dialysis at pH 2, 5 and 7 was also determined After 1 hour of dialysis, the amount of zinc that had been released through the dialysis tubing, in the presence and absence of chitosan, was measured as described above. The amount of zinc released in the presence of chitosan was subtracted from the amount of zinc released in the absence of chitosan to determine the amount of zinc bound to chitosan."}, "[2]": {"assay": "Chitosan-controlled release of zinc through dialysis tubing, dialysate zinc measured by ICP-OES", "type": "physicochemical", "method": "as §1, §2"}}, "data": [{"smiles": "CC(=O)[O-].CC(=O)[O-].[Zn+2]", "note": "[Zinc, Zinc acetate]", "values": [{"measurement": "Zn++ released through the dialysis tubing", "setting": "[1]; 100 ppm pH 2, after 1 hour of dialysis", "result": 0.57, "unit": "mg"}, {"measurement": "Zn++ released through the dialysis tubing", "setting": "[1]; 100 ppm pH 5, after 1 hour of dialysis", "result": 1.62, "unit": "mg"}, {"measurement": "Zn++ released through the dialysis tubing", "setting": "[1]; 100 ppm pH 7, after 1 hour of dialysis", "result": 0.87, "unit": "mg"}, {"measurement": "Zn++ released through the dialysis tubing", "setting": "[1]; 200 ppm pH 2, after 1 hour of dialysis", "result": 1.68, "unit": "mg"}, {"measurement": "Zn++ released through the dialysis tubing", "setting": "[1]; 200 ppm pH 5, after 1 hour of dialysis", "result": 2.54, "unit": "mg"}, {"measurement": "Zn++ released through the dialysis tubing", "setting": "[1]; 200 ppm pH 7, after 1 hour of dialysis", "result": 1.68, "unit": "mg"}, {"measurement": "average rate of zinc release per hour", "setting": "[2]; 100 ppm Zn acetate, pH 2", "result": 0.54, "unit": "mg/h"}, {"measurement": "average rate of zinc release per hour", "setting": "[2]; 100 ppm Zn acetate, pH 5", "result": 1.38, "unit": "mg/h"}, {"measurement": "average rate of zinc release per hour", "setting": "[2]; 100 ppm Zn acetate, pH 7", "result": 0.85, "unit": "mg/h"}, {"measurement": "Amount of Zn++ released", "setting": "[2]; 100 ppm zinc ion, pH 2, 0.00 hrs", "result": 0, "unit": "mg"}, {"measurement": "Amount of Zn++ released", "setting": "[2]; 100 ppm zinc ion, pH 2, 0.33 hrs", "result": "0.25 ± 0.00", "unit": "mg"}, {"measurement": "Amount of Zn++ released", "setting": "[2]; 100 ppm zinc ion, pH 2, 0.67 hrs", "result": "0.42 ± 0.01", "unit": "mg"}, {"measurement": "Amount of Zn++ released", "setting": "[2]; 100 ppm zinc ion, pH 2, 1.00 hrs", "result": "0.52 ± 0.01", "unit": "mg"}, {"measurement": "Amount of Zn++ released", "setting": "[2]; 100 ppm zinc ion, pH 2, 1.33 hrs", "result": "0.75 ± 0.01", "unit": "mg"}, {"measurement": "Amount of Zn++ released", "setting": "[2]; 100 ppm zinc ion, pH 2, 1.67 hrs", "result": "0.90 ± 0.02", "unit": "mg"}, {"measurement": "Amount of Zn++ released", "setting": "[2]; 100 ppm zinc ion, pH 2, 2.00 hrs", "result": "1.01 ± 0.02", "unit": "mg"}, {"measurement": "Amount of Zn++ released", "setting": "[2]; 100 ppm zinc ion, pH 2, 2.50 hrs", "result": "1.40 ± 0.01", "unit": "mg"}, {"measurement": "Amount of Zn++ released", "setting": "[2]; 100 ppm zinc ion, pH 2, 3.00 hrs", "result": "1.66 ± 0.02", "unit": "mg"}, {"measurement": "Amount of Zn++ released", "setting": "[2]; 100 ppm zinc ion, pH 5, 0.00 hrs", "result": 0, "unit": "mg"}, {"measurement": "Amount of Zn++ released", "setting": "[2]; 100 ppm zinc ion, pH 5, 0.33 hrs", "result": "0.57 ± 0.01", "unit": "mg"}, {"measurement": "Amount of Zn++ released", "setting": "[2]; 100 ppm zinc ion, pH 5, 0.67 hrs", "result": "1.15 ± 0.02", "unit": "mg"}, {"measurement": "Amount of Zn++ released", "setting": "[2]; 100 ppm zinc ion, pH 5, 1.00 hrs", "result": "1.68 ± 0.02", "unit": "mg"}, {"measurement": "Amount of Zn++ released", "setting": "[2]; 100 ppm zinc ion, pH 5, 1.33 hrs", "result": "2.36 ± 0.07", "unit": "mg"}, {"measurement": "Amount of Zn++ released", "setting": "[2]; 100 ppm zinc ion, pH 5, 1.67 hrs", "result": "2.86 ± 0.07", "unit": "mg"}, {"measurement": "Amount of Zn++ released", "setting": "[2]; 100 ppm zinc ion, pH 5, 2.00 hrs", "result": "3.14 ± 0.01", "unit": "mg"}, {"measurement": "Amount of Zn++ released", "setting": "[2]; 100 ppm zinc ion, pH 5, 2.50 hrs", "result": "3.69 ± 0.05", "unit": "mg"}, {"measurement": "Amount of Zn++ released", "setting": "[2]; 100 ppm zinc ion, pH 5, 3.00 hrs", "result": "4.00 ± 0.00", "unit": "mg"}, {"measurement": "Amount of Zn++ released", "setting": "[2]; 100 ppm zinc ion, pH 7, 0.00 hrs", "result": 0, "unit": "mg"}, {"measurement": "Amount of Zn++ released", "setting": "[2]; 100 ppm zinc ion, pH 7, 0.33 hrs", "result": "0.30 ± 0.00", "unit": "mg"}, {"measurement": "Amount of Zn++ released", "setting": "[2]; 100 ppm zinc ion, pH 7, 0.67 hrs", "result": "0.71 ± 0.15", "unit": "mg"}, {"measurement": "Amount of Zn++ released", "setting": "[2]; 100 ppm zinc ion, pH 7, 1.00 hrs", "result": "0.82 ± 0.00", "unit": "mg"}, {"measurement": "Amount of Zn++ released", "setting": "[2]; 100 ppm zinc ion, pH 7, 1.33 hrs", "result": "1.11 ± 0.00", "unit": "mg"}, {"measurement": "Amount of Zn++ released", "setting": "[2]; 100 ppm zinc ion, pH 7, 1.67 hrs", "result": "1.40 ± 0.01", "unit": "mg"}, {"measurement": "Amount of Zn++ released", "setting": "[2]; 100 ppm zinc ion, pH 7, 2.00 hrs", "result": "1.78 ± 0.25", "unit": "mg"}, {"measurement": "average rate of zinc release per hour", "setting": "[2]; 200 ppm Zn acetate, pH 2", "result": 1.58, "unit": "mg/h"}, {"measurement": "average rate of zinc release per hour", "setting": "[2]; 200 ppm Zn acetate, pH 5", "result": 2.07, "unit": "mg/h"}, {"measurement": "average rate of zinc release per hour", "setting": "[2]; 200 ppm Zn acetate, pH 7", "result": 1.47, "unit": "mg/h"}, {"measurement": "Amount of Zn++ released", "setting": "[2]; 200 ppm zinc ion, pH 2, 0.00 hrs", "result": 0, "unit": "mg"}, {"measurement": "Amount of Zn++ released", "setting": "[2]; 200 ppm zinc ion, pH 2, 0.33 hrs", "result": "0.52 ± 0.00", "unit": "mg"}, {"measurement": "Amount of Zn++ released", "setting": "[2]; 200 ppm zinc ion, pH 2, 0.67 hrs", "result": "1.07 ± 0.00", "unit": "mg"}, {"measurement": "Amount of Zn++ released", "setting": "[2]; 200 ppm zinc ion, pH 2, 1.00 hrs", "result": "1.77 ± 0.07", "unit": "mg"}, {"measurement": "Amount of Zn++ released", "setting": "[2]; 200 ppm zinc ion, pH 2, 1.33 hrs", "result": "2.36 ± 0.01", "unit": "mg"}, {"measurement": "Amount of Zn++ released", "setting": "[2]; 200 ppm zinc ion, pH 2, 1.67 hrs", "result": "2.90 ± 0.01", "unit": "mg"}, {"measurement": "Amount of Zn++ released", "setting": "[2]; 200 ppm zinc ion, pH 2, 2.00 hrs", "result": "3.40 ± 0.05", "unit": "mg"}, {"measurement": "Amount of Zn++ released", "setting": "[2]; 200 ppm zinc ion, pH 2, 2.50 hrs", "result": "4.09 ± 0.01", "unit": "mg"}, {"measurement": "Amount of Zn++ released", "setting": "[2]; 200 ppm zinc ion, pH 2, 3.00 hrs", "result": "4.59 ± 0.00", "unit": "mg"}, {"measurement": "Amount of Zn++ released", "setting": "[2]; 200 ppm zinc ion, pH 5, 0.00 hrs", "result": 0, "unit": "mg"}, {"measurement": "Amount of Zn++ released", "setting": "[2]; 200 ppm zinc ion, pH 5, 0.33 hrs", "result": "0.99 ± 0.00", "unit": "mg"}, {"measurement": "Amount of Zn++ released", "setting": "[2]; 200 ppm zinc ion, pH 5, 0.67 hrs", "result": "1.91 ± 0.02", "unit": "mg"}, {"measurement": "Amount of Zn++ released", "setting": "[2]; 200 ppm zinc ion, pH 5, 1.00 hrs", "result": "2.73 ± 0.00", "unit": "mg"}, {"measurement": "Amount of Zn++ released", "setting": "[2]; 200 ppm zinc ion, pH 5, 1.33 hrs", "result": "3.61 ± 0.00", "unit": "mg"}, {"measurement": "Amount of Zn++ released", "setting": "[2]; 200 ppm zinc ion, pH 5, 1.67 hrs", "result": "4.25 ± 0.01", "unit": "mg"}, {"measurement": "Amount of Zn++ released", "setting": "[2]; 200 ppm zinc ion, pH 5, 2.00 hrs", "result": "4.85 ± 0.02", "unit": "mg"}, {"measurement": "Amount of Zn++ released", "setting": "[2]; 200 ppm zinc ion, pH 5, 2.50 hrs", "result": "5.59 ± 0.01", "unit": "mg"}, {"measurement": "Amount of Zn++ released", "setting": "[2]; 200 ppm zinc ion, pH 5, 3.00 hrs", "result": "6.13 ± 0.03", "unit": "mg"}, {"measurement": "Amount of Zn++ released", "setting": "[2]; 200 ppm zinc ion, pH 7, 0.00 hrs", "result": 0, "unit": "mg"}, {"measurement": "Amount of Zn++ released", "setting": "[2]; 200 ppm zinc ion, pH 7, 0.33 hrs", "result": "0.630 ± 0.00", "unit": "mg"}, {"measurement": "Amount of Zn++ released", "setting": "[2]; 200 ppm zinc ion, pH 7, 0.67 hrs", "result": "1.21 ± 0.01", "unit": "mg"}, {"measurement": "Amount of Zn++ released", "setting": "[2]; 200 ppm zinc ion, pH 7, 1.00 hrs", "result": "1.76 ± 0.01", "unit": "mg"}, {"measurement": "Amount of Zn++ released", "setting": "[2]; 200 ppm zinc ion, pH 7, 1.33 hrs", "result": "2.36 ± 0.02", "unit": "mg"}, {"measurement": "Amount of Zn++ released", "setting": "[2]; 200 ppm zinc ion, pH 7, 1.67 hrs", "result": "2.88 ± 0.02", "unit": "mg"}, {"measurement": "Amount of Zn++ released", "setting": "[2]; 200 ppm zinc ion, pH 7, 2.00 hrs", "result": "3.25 ± 0.04", "unit": "mg"}]}]}
